The results in this text go back to US8716292B2, “Riminophenazines with 2-(heteroaryl)amino substituents and their anti-microbial activity” (priority 2010, dated 2014).

Values after ≈ are worked out from the molar mass of the structure shown. Read-outs that look alike come from different tables or passages of the source.

This assay deals with Mycobacterium tuberculosis H37Rv strains. Nature of the assay: In vitro assay for antimicrobial susceptibility (microplate Alamar blue MIC). Type of assay: cell-based. The conditions noted are these: Mycobacterium tuberculosis, H37RV, read-out: MIC (μg/mL) against H37Rv.
[1] abbreviates: in vitro, Mycobacterium tuberculosis H37Rv strains.
Where [2] appears, read: 7H9, Alamar blue, inhibition ≧90%.

Regarding `COC1CCC(/N=c2\cc3n(-c4ccc(F)c(F)c4)c4ccccc4nc-3cc2Nc2cccnc2)CC1` (stereo not drawn) [TBI-1430, 5-(3,4-Difluorophenyl)-3-(4-methoxycyclohexyl)imino-2-(3-pyridyl)amino-3,5-dihydrophenazine], the MIC under setting [1] came to 0.059 µg/mL (≈ 0.115 µM). On the same count and under the same terms, as for `Clc1ccc(-n2c3c/c(=N\C4CC4)c(Nc4cncc(Br)c4)cc-3nc3ccccc32)cc1` [TBI-882, 5-(4-Chlorophenyl)-3-cyclopropylimino-2-(5-bromo-3-pyridyl)amino-3,5-dihydrophenazine], the figure is 0.015 µg/mL (≈ 0.029 µM).

`COC1CCC(/N=c2\cc3n(-c4ccc(C)cc4)c4ccccc4nc-3cc2Nc2cccnc2C)CC1` (stereo not drawn) [TBI-322, 5-(4-Methylphenyl)-3-(4-methoxycyclohexyl)imino-2-(2-methyl-3-pyridyl)amino-3,5-dihydrophenazine]: the MIC under setting [1] came to 0.092 µg/mL (≈ 0.183 µM). For the compound `Cc1ncccc1Nc1cc2nc3ccccc3n(-c3ccc(F)cc3)c-2c/c1=N\C1CCC1` [TBI-1018, 5-(4-Fluorophenyl)-3-cyclobutylimino-2-(2-methyl-3-pyridyl)amino-3,5-dihydrophenazine], the MIC under setting [1] was found to be 0.028 µg/mL (≈ 0.0623 µM). `C/N=c1\cc2n(-c3ccccc3)c3ccccc3nc-2cc1Nc1cccnc1C` [TBI-078]: the MIC under setting [1] stood at 0.019 µg/mL (≈ 0.0485 µM).

For the compound `COC1CCC(/N=c2\cc3n(-c4ccccc4)c4ccccc4nc-3cc2Nc2cccnc2)CC1` (stereo not drawn) [TBI-059, 5-Phenyl-3-(4-methoxycyclohexyl)imino-2-(3-pyridyl)amino-3,5-dihydrophenazine], the MIC under setting [1] amounted to 0.125 µg/mL (≈ 0.263 µM). As to `COc1ncccc1Nc1cc2nc3cc(F)ccc3n(-c3ccc(Cl)cc3)c-2c/c1=N\C1CCOCC1` [TBI-937, 8-Fluoro-5-(4-chlorophenyl)-3-(4-tetrahydropyranyl)imino-2-(2-methoxy-3-pyridyl)amino-3,5-dihydrophenazine], the MIC under setting [1] turned out to be 0.125 µg/mL (≈ 0.236 µM). Still for that read-out and setting: in the case of `COc1ccc(Nc2cc3nc4ccccc4n(-c4ccc(C(F)(F)F)cc4)c-3c/c2=N\C2CCC2)cn1` [TBI-737, 5-(4-Trifluoromethylphenyl)-3-cyclobutylimino-2-(6-methoxy-3-pyridyl)amino-3,5-dihydrophenazine] it was 0.119 µg/mL (≈ 0.231 µM). For `COc1ncccc1Nc1cc2nc3ccccc3n(-c3ccccc3OC(F)(F)F)c-2c/c1=N\C1CCC(OC)CC1` (stereo not drawn) [TBI-1044, 5-(2-Trifluoromethoxyphenyl)-3-(4-methoxycyclohexyl)imino-2-(2-methoxy-3-pyridyl)amino-3,5-dihydrophenazine], the MIC under setting [1] was found to be 0.25 µg/mL (≈ 0.424 µM).

As for `COC1CCC(/N=c2\cc3n(-c4ccc(OC(F)(F)F)cc4)c4cc(F)ccc4nc-3cc2Nc2ccc(C)nc2)CC1` (stereo not drawn) [TBI-852, 7-Fluoro-5-(4-trifluoromethoxyphenyl)-3-(4-methoxycyclohexyl)imino-2-(6-methyl-3-pyridyl)amino-3,5-dihydrophenazine], the MIC under setting [1] was found to be 0.024 µg/mL (≈ 0.0406 µM).

As to `Clc1ccc(-n2c3c/c(=N\C4CCOCC4)c(Nc4ncccn4)cc-3nc3ccccc32)cc1` [TBI-860, 5-(4-Chlorophenyl)-3-(4-tetrahydropyranyl)imino-2-(pyrimidin-2-yl)amino-3,5-dihydrophenazine], the MIC under setting [2] was 0.029 µg/mL (≈ 0.06 µM). In the case of `COc1ncccc1Nc1cc2nc3ccccc3n(-c3ccc(Cl)cc3)c-2c/c1=N\C1CCCCC1` [TBI-451], the MIC under setting [1] was found to be 0.057 µg/mL (≈ 0.112 µM). Consider `Cc1ccc(Nc2cc3nc4cc(F)ccc4n(-c4ccc(OC(F)(F)F)cc4)c-3c/c2=N\C2CCCCC2)cn1` [TBI-865, 8-Fluoro-5-(4-trifluoromethoxyphenyl)-3-cyclohexylimino-2-(6-methyl-3-pyridyl)amino-3,5-dihydrophenazine], for which, under setting [1], the MIC came to 0.031 µg/mL (≈ 0.0552 µM). In the case of `COc1ncccc1Nc1cc2nc3ccccc3n(-c3ccccc3)c-2c/c1=N\C1CCC(O)CC1` (stereo not drawn) [TBI-087, 5-Phenyl-3-(4-hydroxycyclohexyl)imino-2-(2-methoxy-3-pyridyl)amino-3,5-dihydrophenazine], the MIC under setting [1] turned out to be 0.466 µg/mL (≈ 0.948 µM). For the compound `Cc1ccc(Nc2cc3nc4ccccc4n(-c4ccc(C(F)(F)F)cc4)c-3c/c2=N\C2CCN(C)CC2)cn1` [TBI-697, 5-(4-Trifluoromethylphenyl)-3-(N-methyl-4-piperidyl)imino-2-(6-methyl-3-pyridyl)amino-3,5-dihydrophenazine], the MIC under setting [1] worked out at 0.053 µg/mL (≈ 0.0977 µM). Take `Cc1cncc(Nc2cc3nc4ccccc4n(-c4ccc(C(F)(F)F)cc4)c-3c/c2=N\C(C)C)c1` [TBI-721, 5-(4-Trifluoromethylphenyl)-3-(1-methylethyl)imino-2-(5-methyl-3-pyridyl)amino-3,5-dihydrophenazine]: the MIC under setting [1] was 0.082 µg/mL (≈ 0.168 µM).

For `FC(F)(F)Oc1ccc(-n2c3c/c(=N\C4CCOCC4)c(Nc4ncccn4)cc-3nc3ccccc32)cc1` [TBI-830, 5-(4-Trifluoromethoxyphenyl)-3-(4-tetrahydropyranyl)imino-2-(pyrimidin-2-yl)amino-3,5-dihydrophenazine], under setting [2], the MIC turned out to be 0.014 µg/mL (≈ 0.0263 µM). With `COc1ncccc1Nc1cc2nc3ccccc3n(-c3cccc(OC(F)(F)F)c3)c-2c/c1=N\C1CCOCC1` [TBI-1041, 5-(3-Trifluoromethoxyphenyl)-3-(4-tetrahydropyranyl)imino-2-(2-methoxy-3-pyridyl)amino-3,5-dihydrophenazine], under setting [1], the MIC stood at 0.115 µg/mL (≈ 0.205 µM). The same measure, in the same setting: in the case of `COc1ccc(Nc2cc3nc4ccccc4n(-c4ccc(F)cc4)c-3c/c2=N\C2CCCCC2)cn1` [TBI-932, 5-(4-Fluorophenyl)-3-cyclohexylimino-2-(6-methoxy-3-pyridyl)amino-3,5-dihydrophenazine] it was 0.148 µg/mL (≈ 0.3 µM); in that of `Cc1ccc(Nc2cc3nc4ccccc4n(-c4ccccc4)c-3c/c2=N\C(C)C)cn1` [TBI-067, 5-Phenyl-3-(1-methylethyl)imino-2-(6-methyl-3-pyridyl)amino-3,5-dihydrophenazine], 0.048 µg/mL (≈ 0.114 µM); in that of `CC(=O)Nc1ccc(Nc2cc3nc4ccccc4n(-c4ccc(F)cc4)c-3c/c2=N\C2CCCCC2)cn1` [TBI-916, 5-(4-Fluorophenyl)-3-cyclohexylimino-2-(6-acetamino-3-pyridyl)amino-3,5-dihydrophenazine], 0.014 µg/mL (≈ 0.0269 µM).

For `Cc1ccc(Nc2cc3nc4ccccc4n(-c4ccc(OC(F)(F)F)cc4)c-3c/c2=N\C2CCOCC2)cn1` [TBI-950, 5-(4-Trifluoromethoxyphenyl)-3-(4-tetrahydropyranyl)imino-2-(6-methyl-3-pyridyl)amino-3,5-dihydrophenazine], the MIC under setting [1] was found to be 0.035 µg/mL (≈ 0.0642 µM). Consider `COc1ncccc1Nc1cc2nc3ccccc3n(-c3ccc(OC(F)(F)F)cc3)c-2c/c1=N\C(C)C` [TBI-164, 5-(4-Trifluoromethoxyphenyl)-3-(1-methylethyl)imino-2-(2-methoxy-3-pyridyl)amino-3,5-dihydrophenazine], for which, under setting [1], the MIC is 0.028 µg/mL (≈ 0.0539 µM). On the same count and under the same terms, as for `COc1ncccc1Nc1cc2nc3ccccc3n(-c3ccc(F)c(F)c3)c-2c/c1=N\C1CCCCC1` [TBI-531, 5-(3,4-Difluorophenyl)-3-cyclohexylimino-2-(2-methoxy-3-pyridyl)amino-3,5-dihydrophenazine], the figure is 0.03 µg/mL (≈ 0.0586 µM). Turning to `COC1CCC(/N=c2\cc3n(-c4ccc(Cl)cc4)c4cc(F)ccc4nc-3cc2Nc2ccc(C)nc2)CC1` (stereo not drawn) [TBI-925], under setting [1], the MIC is 0.078 µg/mL (≈ 0.144 µM).

Take `COC1CCC(/N=c2\cc3n(-c4ccc(OC(F)(F)F)cc4)c4ccccc4nc-3cc2Nc2cccnc2)CC1` (stereo not drawn) [TBI-162, 5-(4-Trifluoromethoxyphenyl)-3-(4-methoxycyclohexyl)imino-2-(3-pyridyl)amino-3,5-dihydrophenazine]: under setting [1], the MIC was 0.03 µg/mL (≈ 0.0536 µM). Regarding `Cc1cncc(Nc2cc3nc4ccccc4n(-c4ccc(F)cc4)c-3c/c2=N\C2CCOCC2)c1` [TBI-1028, 5-(4-Fluorophenyl)-3-(4-tetrahydropyranyl)imino-2-(5-methyl-3-pyridyl)amino-3,5-dihydrophenazine], the MIC under setting [1] came out at 0.06 µg/mL (≈ 0.125 µM). Same read-out and setting: as for `Cc1ccc(-n2c3c/c(=N\C4CCC(O)CC4)c(Nc4cccnc4)cc-3nc3ccccc32)cc1` (stereo not drawn) [TBI-338, 5-(4-Methylphenyl)-3-(4-hydroxycyclohexyl)imino-2-(3-pyridyl)amino-3,5-dihydrophenazine], the figure is 0.5 µg/mL (≈ 1.05 µM); as for `COc1ncccc1Nc1cc2nc3ccccc3n(-c3ccc(Br)cc3)c-2c/c1=N\C1CCOCC1` [TBI-518, 5-(4-Bromophenyl)-3-(4-tetrahydropyranyl)imino-2-(2-methoxy-3-pyridyl)amino-3,5-dihydrophenazine], 0.02 µg/mL (≈ 0.0359 µM). Turning to `Brc1ccc(-n2c3c/c(=N\C4CCOCC4)c(Nc4cccnc4)cc-3nc3ccccc32)cc1` [TBI-093, 5-(4-Bromophenyl)-3-(4-tetrahydropyranyl)imino-2-(3-pyridyl)amino-3,5-dihydrophenazine], the MIC under setting [1] was determined as 0.163 µg/mL (≈ 0.31 µM). As to `CN1CCC(/N=c2\cc3n(-c4ccc(C(F)(F)F)cc4)c4ccccc4nc-3cc2Nc2cccnc2)CC1` [TBI-689, 5-(4-Trifluoromethylphenyl)-3-(N-methyl-4-piperidyl)imino-2-(3-pyridyl)amino-3,5-dihydrophenazine], under setting [1], the MIC came out at 0.125 µg/mL (≈ 0.236 µM).

As for `Cc1ccc(Nc2cc3nc4ccc(F)cc4n(-c4ccc(Cl)cc4)c-3c/c2=N\C2CCCCC2)cn1` [TBI-918, 7-Fluoro-5-(4-chlorophenyl)-3-cyclohexylimino-2-(6-methyl-3-pyridyl)amino-3,5-dihydrophenazine], the MIC under setting [1] was found to be 0.253 µg/mL (≈ 0.494 µM). The same measure, in the same setting: in the case of `COC1CCC(N=c2cc3n(-c4ccc(C(F)(F)F)cc4)c4ccccc4nc-3cc2Nc2cccnc2C)CC1` (stereo not drawn) [TBI-706, 5-(4-Trifluoromethylphenyl)-3-(4-methoxycyclohexyl)imino-2-(2-methyl-3-pyridyl)amino-3,5-dihydrophenazine] it was 0.011 µg/mL (≈ 0.0197 µM). On to `Cc1cncc(Nc2cc3nc4ccccc4n(-c4ccc(F)cc4)c-3c/c2=N\C(C)C)c1` [TBI-1025, 5-(4-Fluorophenyl)-3-(1-methylethyl)imino-2-(5-methyl-3-pyridyl)amino-3,5-dihydrophenazine], for which, under setting [1], the MIC came out at 0.122 µg/mL (≈ 0.279 µM). Take `COCC(COC)/N=c1\cc2n(-c3ccc(F)c(F)c3)c3ccccc3nc-2cc1Nc1cccnc1` [TBI-528, 5-(3,4-Difluorophenyl)-3-(1,3-dimethoxyisopropyl)imino-2-(3-pyridyl)amino-3,5-dihydrophenazine]: the MIC under setting [1] is 0.216 µg/mL (≈ 0.431 µM).

Take `Cc1ccc(Nc2cc3nc4ccccc4n(-c4ccc(C(F)(F)F)cc4)c-3c/c2=N\C2CCCCC2)cn1` [TBI-717, 5-(4-Trifluoromethylphenyl)-3-cyclohexylimino-2-(6-methyl-3-pyridyl)amino-3,5-dihydrophenazine]: the MIC under setting [1] turned out to be 0.015 µg/mL (≈ 0.0284 µM).
